Laboratory results from patent publication US8404696B2, “Quinazoline-2,4-dione derivative, and medical compositions for the prophylaxis and treatment of cranial nerve disease containing the same” (Shin Poong Pharmaceutical Co., Ltd., priority 2008, dated 2013).
In brackets after ≈: the same amount, converted by molar mass.

Tests used:
[1] = test system: middle cerebral artery occlusion (MCAO) model; assay: Anti-stroke effect in MCAO model, intravenous administration around reperfusion; format: in vivo, rats of SD species; settings: 5 mg/kg iv; for Infarcted volume (Mean ± standard deviation): negative control 0.43 ± 0.02
Description: Male rats of SD species with 290-300 g of body weight were used as laboratory animals, and 8 rats were used in each experiment group. The operation was performed by using the method of Nagasawa et al. (Nagasawa, H. and Gogure, K. 1989, Stroke, 20: 1037-1043).
The rats were anesthetized by Ketamine, and the operation was performed as body temperature was maintained using thermoplate. The cerebral region was incised following the median line of the neck, and the left common carotid artery, internal carotid artery and external carotid artery were separated, taking care not to damage the vagus nerve. The common carotid artery and external carotid artery were ligatured, and a probe was inserted into the internal carotid artery from the branch point of the internal and external carotid arteries. And then the fundus of the middle cerebral artery was occluded by ligature just on the upper side of the insertion region. A probe was made by heating the end of a 4-0 nylon surgical suture (Dafilon, B. Braun, Germany) and cut into 30 mm. The 7-9 mm end of the probe was coated with the mixture of silcon (Xantopren VL plus, Heraeus Kulzer, Germany) and curing agent (Optosyl-Xantopren VL plus, Heraeus Kulzer, Germany), and the thickness was to be 0.3-0.4 mm. After the intervention of the probe insertion and the animals came out of the anesthetic, individuals in which neurological deficit symptom (right direction circling) was observed were included in the ischemia group.
After 3 hours of ischemia, the inserted probe was removed to reperfuse blood circulation. The brain was extracted after 24 hours, followed by histological staining.
The compound 3 was administered at a programmed time before or after insertion of the probe with oral or intravenous administration. TTC (2,3,5-triphenyltetrazolium chloride) staining was performed to estimate the damage of brain tissue by ischemia. Procephalon of the extracted brain was sliced into 2 mm of sequential slice by using brain matrix (ASI instrument, Warren, Mich., USA). The slices were put into 2% of TTC solution and incubated at 37° C. for 60 minutes for staining. The TTC stained brain slice was fixed in 10% of formalin buffer and the front of the each slice was photographed with a digital camera. The infarcted areas (cm^2) that were not stained with deep red in each acquired image were measured using an image analyzer, and total infarcted volume (cm^3) was calculated by multiplying the thickness of the slices
In the experiment, the probe was removed after stoke induction so that circulation was reperfused.

[2] = test system: mouse brain cells; assay: Inhibitory effect on ROS production in brain cells (DCF-DA, NMDA-induced); format: cell-based
[3] = treatment time 0.5 after reperfusion
[4] = treatment time 1 after reperfusion
[5] = treatment time 2 after reperfusion
[6] = treatment time 4 after reperfusion
[7] = treatment time 6 after reperfusion
[8] = treatment time 12 (hours) after reperfusion
[9] = treatment time 18 after reperfusion
[10] = treatment time 24 after reperfusion
[11] = treatment time −0.5 after reperfusion

CC(=O)N(CCCCNCCCn1c(=O)[nH]c2ccccc2c1=O)CCCn1c(=O)[nH]c2ccccc2c1=O [Compound 3, N-[3-(2,4-dioxo-1,4-dihydro-2H-quinazolin-3-yl)propyl]-N-{4-[3-(2,4-dioxo-1,4-dihydro-2H-quinazolin-3-yl)propylamino]butyl}acetamide]
Inhibitory percentage compared to negative control [1, 3]: 72.3% | Infarcted volume (Mean ± standard deviation) [1, 3]: 0.12 ± 0.03 cm^3 | Inhibitory percentage compared to negative control [1, 4]: 53.8% | Infarcted volume (Mean ± standard deviation) [1, 4]: 0.20 ± 0.04 cm^3 | Inhibitory percentage compared to negative control [1, 5]: 49.9% | Infarcted volume (Mean ± standard deviation) [1, 5]: 0.22 ± 0.02 cm^3 | Inhibitory percentage compared to negative control [1, 6]: 47.9% | Infarcted volume (Mean ± standard deviation) [1, 6]: 0.22 ± 0.09 cm^3 | Inhibitory percentage compared to negative control [1, 7]: 60.9% | Infarcted volume (Mean ± standard deviation) [1, 7]: 0.17 ± 0.04 cm^3 | Inhibitory percentage compared to negative control [1, 8]: 62.7% | Infarcted volume (Mean ± standard deviation) [1, 8]: 0.16 ± 0.04 cm^3 | Inhibitory percentage compared to negative control [1, 9]: 13.5% | Infarcted volume (Mean ± standard deviation) [1, 9]: 0.37 ± 0.03 cm^3 | Inhibitory percentage compared to negative control [1, 10]: 16.3% | Infarcted volume (Mean ± standard deviation) [1, 10]: 0.36 ± 0.08 cm^3 | Inhibitory percentage compared to negative control [1, 11]: 67.2% | Infarcted volume (Mean ± standard deviation) [1, 11]: 0.14 ± 0.03 cm^3 | Suppression of oxidative stress induced by NMDA (DCF fluorescence) ([2]; 125 μg/ml and 250 μg/ml, 300 μM NMDA, 24 hours, FIG. 2): suppressed the oxidative stress induced by NMDA of nerve cells in a dose-dependent manner | IC50 ([2]; 24 h, dose suppressing 50% of production of reactive oxygen compared to control, mouse brain cells, read-out: ROS inhibitory effect ID50): 108 ± 27.2 µg/mL (≈ 203 µM)
